Laboratory results from patent US12661410B2, “Compounds for targeted degradation of RET” (C4 Therapeutics, Inc., priority 2020, dated 2026).
Numbering of substitutions follows the chain as printed. Where two headings read alike, the source gives them in different places.

Experiments:
RET (658-1114) = biological target: T1, RET (658-1114) (Homo sapiens, UniProt P07949); assay: HiBiT-Degradation, RET wild-type degradation assay (Nano-Glo HiBiT Lytic), 293T.144 cells; assay type: cell-based; settings: for Emax / DC50: 6.0 hours; for Emax: read-out: 293T.144 RET (658-1114) 6.0 hours (Emax); for DC50: read-out: 293T.144 RET (658-1114) 6.0 hours (DC50)
T1 construct: 658-1114; expressed in transfected cells; host or cells: 293T.144 (293T cells, generated in-house)
T1 sequence (P07949 658-1114): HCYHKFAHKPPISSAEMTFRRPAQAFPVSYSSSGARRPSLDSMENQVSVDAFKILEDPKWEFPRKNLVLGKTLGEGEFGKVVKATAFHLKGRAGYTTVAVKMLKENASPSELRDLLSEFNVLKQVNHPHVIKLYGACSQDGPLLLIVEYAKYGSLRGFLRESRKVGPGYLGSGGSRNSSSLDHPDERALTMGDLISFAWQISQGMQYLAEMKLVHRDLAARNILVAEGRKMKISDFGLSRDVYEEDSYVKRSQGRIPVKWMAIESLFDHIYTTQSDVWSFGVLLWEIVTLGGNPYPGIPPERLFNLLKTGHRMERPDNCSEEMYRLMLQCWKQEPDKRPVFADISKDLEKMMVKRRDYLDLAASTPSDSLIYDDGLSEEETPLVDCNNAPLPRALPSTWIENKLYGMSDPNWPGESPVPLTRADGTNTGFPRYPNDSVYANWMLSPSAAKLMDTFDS
Excerpt: (§1) Dulbecco's modified Eagle medium (DMEM) no-phenol red media and fetal bovine serum (FBS) were purchased from Gibco (Grand Island, NY, USA). Cell lines ectopically expressing wild-type or G810R RET kinase domain fused with a HiBiT tag were generated in-house (293T. 144 and 293T. 165, respectively). Cell culture flasks and 384-well microplates were acquired from VWR (Radnor, PA, USA). The Nano-Glo® HiBiT Lytic Assay System was purchased from Promega (Madison, WI, USA).
(§2) RET wild-type (WT) and G810R degradation were assessed using the Nano-Glo® HiBiT Lytic assay (Promega, Medison, WI, USA). To determine the effect of degraders on protein levels, cells were plated in 384-well plates and treated with compounds of interest in duplicates for 6 hours using an 11-point half-log dilution series, with the highest dose set at 10 μM. Cell lysis and addition of the Nano-Glo® HiBiT Lytic Assay reagents was then performed. Luminescence signal was measured using an EnVision™ Multimode plate reader (Perkin Elmer, Santa Clara, CA, USA). The half-maximal degradation concentration (DC50) and % remaining protein (Emax) was then derived from the dose-response curves.

RET(KD: 658-1114 G810R) = biological target: T2, RET(KD: 658-1114 G810R) (Homo sapiens, UniProt P07949, G810R); assay: HiBiT-Degradation, RET G810R degradation assay (Nano-Glo HiBiT Lytic), 293T.165 cells; assay type: cell-based; settings: for Emax / DC50: 6.0 hours; for Emax: % remaining protein, read-out: 293T.165 RET(KD: 658-1114 G810R) 6.0 hours (Emax); for DC50: read-out: 293T.165 RET(KD: 658-1114 G810R) 6.0 hours (DC50)
T2 construct: 658-1114; expressed in transfected cells; host or cells: 293T.165 (293T cells, generated in-house)
T2 sequence (P07949 658-1114 G810R): T1 sequence (P07949 658-1114) with G153R
Excerpt: as §1, §2

[1] = half-maximal degradation concentration

293T.144 RET (658-1114) 6.0 hours (IP) [nM] (RET (658-1114))	Emax (RET (658-1114); % remaining protein) [%]	DC50 (RET (658-1114); [1]) [nM]	293T.165 RET(KD: 658-1114 G810R) 6.0 hours (IP) [nM] (RET(KD: 658-1114 G810R))	Emax (RET(KD: 658-1114 G810R)) [%]	DC50 (RET(KD: 658-1114 G810R); [1]) [nM]	293T.144 RET (658-1114) 6.0 hours (IP) [nM] (RET (658-1114); HiBiT-Degradation)	DC50 (RET (658-1114); HiBiT-Degradation) [nM]	Emax (RET (658-1114); HiBiT-Degradation) [%]	293T.165 RET(KD: 658-1114 G810R) 6.0 hours (Emax) (RET(KD: 658-1114 G810R); HiBiT-Degradation)	293T.165 RET(KD: 658-1114 G810R) 6.0 hours (IP) [nM] (RET(KD: 658-1114 G810R); HiBiT-Degradation)	DC50 (RET(KD: 658-1114 G810R); HiBiT-Degradation) [nM]	Compound
++++ (<50 nM = ++++)	< 30	< 50	++++ (<50 nM = ++++)	< 30	< 50							COCC1(Cc2ccccn2)CCN(c2ccc(-c3nc(-c4cnn(C5CCN(C(=O)CC6(O)CCN(c7ccc(NC8CCC(=O)NC8=O)cc7F)CC6)CC5)c4)cn4ncc(C#N)c34)cn2)CC1 (centres unmarked) [Compound 114, 6-[1-[1-[2-[1-[4-[(2,6-dioxo-3-piperidyl)amino]-2-fluoro-phenyl]-4-hydroxy-4-piperidyl]acetyl]-4-piperidyl]pyrazol-4-yl]-4-[6-[4-(methoxymethyl)-4-(2-pyridylmethyl)-1-piperidyl]-3-pyridyl]pyrazolo[1,5-a]pyrazine-3-carbonitrile]
				< 50	< 50	++++ (< 50 nM = ++++)	< 50	< 30	+++ (<50% = +++)	++++ (< 50 nM = ++++)	< 50	C[C@H](c1ccccn1)N1CCN(c2ccc(-c3nc(-c4cnn(C5CCN(C(=O)CC6(O)CCN(c7ccc(NC8CCC(=O)NC8=O)cc7F)CC6)CC5)c4)cn4ncc(C#N)c34)cn2)CC1 (stereo partly drawn) [Compound 1, 6-[1-[1-[2-[1-[4-[(2,6-dioxo-3-piperidyl)amino]-2-fluoro-phenyl]-4-hydroxy-4-piperidyl]acetyl]-4-piperidyl]pyrazol-4-yl]-4-[6-[4-[(1R)-1-(2-pyridyl)ethyl]piperazin-1-yl]-3-pyridyl]pyrazolo[1,5-a]pyrazine-3-carbonitrile]
				< 50	< 1000							CCC1(C(=O)N[C@H](C)C(F)(F)F)CCN(c2ccc(-c3cc(-c4cnn(C5CCN(C(=O)CN6CCC(c7ccc(NC8CCC(=O)NC8=O)cc7F)CC6)CC5)c4)cn4ncc(C#N)c34)cn2)CC1 (stereo partly drawn) [Compound 7, 1-[5-[3-cyano-6-[1-[1-[2-[4-[4-[(2,6-dioxo-3-piperidyl)amino]-2-fluoro-phenyl]-1-piperidyl]acetyl]-4-piperidyl]pyrazol-4-yl]pyrazolo[1,5-a]pyridin-4-yl]-2-pyridyl]-4-ethyl-N-[(1R)-2,2,2-trifluoro-1-methyl-ethyl]piperidine-4-carboxamide]
				< 50	< 100	++++ (< 50 nM = ++++)	< 50	< 30	+++ (<50% = +++)	++++ (< 50 nM = ++++)	< 100	N#Cc1cnn2cc(-c3ccc(N4CCN(C(=O)CN5CCC(c6ccc(NC7CCC(=O)NC7=O)cc6)CC5)CC4)cc3)cc(-c3ccc(N4CCOCC4)nc3)c12 (centres unmarked) [Compound 24, 6-(4-(4-(2-(4-(4-((2,6-Dioxopiperidin-3-yl)amino)phenyl)piperidin-1-yl)acetyl)piperazin-1-yl)phenyl)-4-(6-morpholinopyridin-3-yl)pyrazolo[1,5-a]pyridine-3-carbonitrile]
++++ (<50 nM = ++++)	< 30	< 50	++++ (<50 nM = ++++)	< 30	< 50							N#Cc1cnn2cc(-c3cnn([C@H]4CC[C@H](N5CCC(c6ccc(NC7CCC(=O)NC7=O)cc6F)CC5)CC4)c3)nc(-c3ccc(N4CCC5(CC4)OCc4cccnc45)nc3)c12 (single isomer, unassigned) [Compound 148, 4-(6-(5H-Spiro[furo[3,4-b]pyridine-7,4′-piperidin]-1′-yl)pyridin-3-yl)-6-(1-((1r, 4r)-4-(4-(4-((2,6-dioxopiperidin-3-yl)amino)-2-fluorophenyl)piperidin-1-yl)cyclohexyl)-1H-pyrazol-4-yl)pyrazolo[1,5-a]pyrazine-3-carbonitrile]
				< 50	< 1000							CCC1(C(=O)NC(C)C)CCN(c2ccc(-c3cc(-c4ccc(N5CCN(C(=O)CN6CCC(c7ccc(C8CCC(=O)NC8=O)cc7)CC6)CC5)cc4)cn4ncc(C#N)c34)cn2)CC1 (centres unmarked) [Compound 29, 1-(5-(3-Cyano-6-(4-(4-(2-(4-(4-(2,6-dioxopiperidin-3-yl)phenyl)piperidin-1-yl)acetyl)piperazin-1-yl)phenyl)pyrazolo[1,5-a]pyridin-4-yl)pyridin-2-yl)-4-ethyl-N-isopropylpiperidine-4-carboxamide]
				< 50	< 1000							CCC1(C(=O)NC(C)C)CCN(c2ccc(-c3cc(-c4cnc(N5CCN(C(=O)CN6CCC(c7ccc(NC8CCC(=O)NC8=O)cc7F)CC6)CC5)nc4)cn4ncc(C#N)c34)cn2)CC1 (centres unmarked) [Compound 37, 1-(5-(3-Cyano-6-(2-(4-(2-(4-(4-((2,6-dioxopiperidin-3-yl)amino)-2-fluorophenyl)piperidin-1-yl)acetyl)piperazin-1-yl)pyrimidin-5-yl)pyrazolo[1,5-a]pyridin-4-yl)pyridin-2-yl)-4-ethyl-N-isopropylpiperidine-4-carboxamide]

Further lines, the compound ahead of its results:

Compound	293T.144 RET (658-1114) 6.0 hours (IP) [nM] (RET (658-1114))	Emax (RET (658-1114); % remaining protein) [%]	DC50 (RET (658-1114); [1]) [nM]	293T.165 RET(KD: 658-1114 G810R) 6.0 hours (IP) [nM] (RET(KD: 658-1114 G810R))	Emax (RET(KD: 658-1114 G810R)) [%]	DC50 (RET(KD: 658-1114 G810R); [1]) [nM]	293T.144 RET (658-1114) 6.0 hours (IP) [nM] (RET (658-1114); HiBiT-Degradation)	DC50 (RET (658-1114); HiBiT-Degradation) [nM]	Emax (RET (658-1114); HiBiT-Degradation) [%]	293T.165 RET(KD: 658-1114 G810R) 6.0 hours (Emax) (RET(KD: 658-1114 G810R); HiBiT-Degradation)	293T.165 RET(KD: 658-1114 G810R) 6.0 hours (IP) [nM] (RET(KD: 658-1114 G810R); HiBiT-Degradation)	DC50 (RET(KD: 658-1114 G810R); HiBiT-Degradation) [nM]
CCC1(C(=O)NC2CCC2)CCN(c2ccc(-c3nc(-c4cnn([C@H]5CC[C@H](N6CCN(c7cc(OC)c(N[C@H]8CCC(=O)NC8=O)cc7F)CC6)CC5)c4)cn4ncc(C#N)c34)cn2)CC1 (single isomer, unassigned) [Compound 134]	++++ (<50 nM = ++++)	< 30	< 50	++++ (<50 nM = ++++)	< 30	< 50						
CCC1(C(=O)NC(C)C)CCN(c2ccc(-c3nc(-c4cnn(C5CCN(C(=O)CC6(OC)CCN(c7ccc(NC8CCC(=O)NC8=O)cc7F)CC6)CC5)c4)cn4ncc(C#N)c34)cn2)CC1 (centres unmarked) [Compound 92, 1-[5-[3-cyano-6-[1-[1-[2-[1-[4-[(2,6-dioxo-3-piperidyl)amino]-2-fluoro-phenyl]-4-methoxy-4-piperidyl]acetyl]-4-piperidyl]pyrazol-4-yl]pyrazolo[1,5-a]pyrazin-4-yl]-2-pyridyl]-4-ethyl-N-isopropyl-piperidine-4-carboxamide]	++++ (<50 nM = ++++)	< 30	< 50	++++ (<50 nM = ++++)	< 30	< 100						
CC(C)NC(=O)C1(C)CCN(c2ccc(-c3cc(-c4ccc(N5CCN(C(=O)CC6(O)CCN(c7ccc(CN8CCC(=O)NC8=O)cc7)CC6)CC5)cc4)cn4ncc(C#N)c34)cn2)CC1 [Compound 33, 1-[5-[3-cyano-6-[4-[4-[2-[1-[4-[(2,4-dioxohexahydropyrimidin-1-yl)methyl]phenyl]-4-hydroxy-4-piperidyl]acetyl]piperazin-1-yl]phenyl]pyrazolo[1,5-a]pyridin-4-yl]-2-pyridyl]-N-isopropyl-4-methyl-piperidine-4-carboxamide]					< 70	> 1000						
N#Cc1cnn2cc(-c3ccc(N4CCN(C(=O)CN5CCC(c6ccc(NC7CCC(=O)NC7=O)cc6)CC5)CC4)cc3)cc(-c3ccc(C4(CO)CCCCC4)nc3)c12 (centres unmarked) [Compound 21, 6-(4-(4-(2-(4-(4-((2,6-Dioxopiperidin-3-yl)amino)phenyl)piperidin-1-yl)acetyl)piperazin-1-yl)phenyl)-4-(6-(1-(hydroxymethyl)cyclohexyl)pyridin-3-yl)pyrazolo[1,5-a]pyridine-3-carbonitrile]					< 50	< 1000						
